The text below walks through data of patent publication US11441122B2, “Regulatory T cell epitopes” (EpiVax, Inc., priority 2017, dated 2022).

Values joined by “and” are separate entries in the source; they are usually repeats but may differ in a detail not shown here. Equal entries are not always repeated.

The subject of assay [1] is CD4+CD25+ FoxP3+ regulatory T cells. Format: cell-based, human.
Assay [2] has as its system CD4+ effector memory T cells. Format: cell-based, human.
In a further assay the test system is Class II HLA alleles. In words: Soluble HLA competition binding assay, panel of five alleles (summary statements). The arrangement: species or system human. On the procedure: HLA Binding Assay. Binding activity was analyzed at EpiVax (Providence, R.I.). The binding assay used (Steere A C et al., (2006), J Exp Med, 2003(4):961-71) yielded an indirect measure of peptide-MHC affinity. Soluble HLA molecules were loaded onto a 96-well plate with the unlabeled experimental Tregitopes and labeled control peptide. Once the binding mixture reached steady equilibrium (at 24 hours), the HLA-Tregitope complexes were captured on an ELISA plate coated with anti-human DR antibody and detected with a Europium-linked probe for the label (PerkinElmer, Waltham, Mass.). Time-resolved fluorescence measuring bound labeled control peptide is assessed by a SpectraMax® M5 unit (Spectramax, Radnor, Pa.). Binding of experimental Tregitopes was expressed as the percent inhibition of the labeled control peptide (experimental fluorescence/control fluorescence multiplied by 100).
The experimental Tregitopes were solvated in DMSO. The diluted Tregitopes were then mixed with binding reagents in aqueous buffering solution, yielding a range of final concentrations from 100,000 nM down to 100 nM. Tregitopes were then assayed against a panel of five common Class II HLA alleles: HLA-DRB1*0101, HLA-DRB1*0301, HLA-DRB1*0701, HLA-DRB1*1101, and HLA-DRB1*1501. […]

For assay [3], the system named is T cells in PBMCs from lupus patients. As to conditions: cited from earlier work.

Turning to “KIVFKNMASRPYSIY (listed as Homo sapiens) [SEQ ID NO: 3, Factor V derived peptide, used as negative control peptide]”, in assay [1], the “relative proportion of highly proliferative regulatory T cells (CFSE low FoxP3+) among CD25+ Granzyme B+ CD4+ T cells” value is “no significant effect”. In assay [2], the “activated (CD25 high) proliferating (CFSE low) CD4 T cells stimulated by Tetanus Toxoid” value is listed as “no significant inhibitory effect”, the “activated effector CD4+ T cells (CD4+/CD25-high/FoxP3-intermediate) reacting to Tetanus Toxoid” value was “no appreciable effect”, the “proliferation of CD4- cell population” value is recorded as “little inhibitory effect” and the “proliferation of total CD4+ T cells (CFSE low)” value was “little to no effect”.
On to “EKDIHSGLIGPLLI (listed as Homo sapiens) [SEQ ID NO: 6]”, for which the HLA binding profile result in the assay with Class II HLA alleles is given as “highly-restricted HLA binding profiles”.
The same measure, in the same setting: with “FAVFDENKSWYLEDN (listed as Homo sapiens) [SEQ ID NO: 4]” the entry was “highly-restricted HLA binding profiles”.
On to “IHSIHFSGHVFTVRK (listed as Homo sapiens) [SEQ ID NO: 2]”, for which, in assay [2], the “CD4+ T cell activation and proliferation of Teff responding to TT” value is “inhibited both CD4+ T cell memory responses”; the “CD4+ T cell activation reduced by” value was 70% and 50%.
As to “RIHMVYSKRSGKPRGYAFIEY (listed as Homo sapiens) [peptide 131-151]”, in assay [3], the “randomly selected lupus patients whose PBMCs contain T cells that proliferate in response to the peptide” value was 40%.
